2 compounds from article PMC4579270, “Identification and Characterization of an Irreversible Inhibitor of CDK2” (Chemistry & Biology, 2015) can be followed below.

Molecules are shown by their SMILES. “Also recorded” adds a separate entry of the source.

For one experiment, the target named is CDK2-Cyclin A (Homo sapiens, UniProt P24941). Description: Kinase assay against GST-Rb after overnight incubation and dialysis. The format is biochemical. The arrangement: made in house; host or cells: Escherichia coli (CDK2 co-expressed with S. cerevisiae CAK1). The settings on record: wild-type CDK2/cyclin A, overnight with 1 mM inhibitor, dialysed 8 h. On the procedure: To confirm the results of the ESI-MS and SPR analysis, CDK2/cyclin A was incubated with either NU6300 or NU6310, then the samples and appropriate controls were dialyzed. The resulting CDK2/cyclin A activity was analyzed in an in vitro kinase assay against a C-terminal fragment of the retinoblastoma protein Rb. After an overnight incubation in the presence of NU6300, CDK2 activity was not recovered after dialysis (Figure 2C). […] The activity of NU6300 was also characterized in an alternative kinase assay format (ADP-Glo;^, Promega) in which covalent inhibition of CDK2/cyclin A was allowed to proceed in a pre-incubation phase and was assessed in a subsequent activity assay, where enzyme and inhibitor were diluted such that the inhibitor was present at 20-fold below its IC50 value. The samples and appropriate controls were incubated for 0, 10, 30, 60, and 120 min, prior to addition of ATP and peptide substrate (sequence HHASPRK, single-letter amino acid code), to initiate the kinase reaction. […]
CDK2/cyclin A (200 µM) was incubated overnight with 1 mM inhibitor or DMSO, and then dialysed for 8 h with regular replacement of dialysis buffer into HEPES-buffered saline (50 mM HEPES, pH 7.5, 250 mM NaCl, 0.02% MTG). […] Reactions were stopped by addition of SDS-PAGE loading buffer and analyzed by SDS-PAGE. […]

Experiment [1] concerns the target T1, immobilized CDK2/cyclin A (Homo sapiens, UniProt P24941).
T1 construct: made in house; host or cells: Escherichia coli
The experiment in a line: SPR kinetics of non-covalent complex. The format is binding. The following applies: 1:1 model, 25 °C. The source says:
To determine the kinetics of the interactions of NU6310 and NU6300 with immobilized CDK2/cyclin A, the sensor surface was exposed to five different concentrations of each inhibitor for different contact times (Figures 2A and 2B). On these relatively short time scales (compared with the experiment above), the interactions between CDK2 and either NU6300 or NU6310 appeared reversible, since the sensorgrams were well described by a simple 1:1 model and the dissociation was similar irrespective of the contact time. It enabled the estimation of the kinetic constants (kon, koff, KD) for the formation of the non-covalent complex. […] The formation of a covalent complex could not be detected on the time scales of these experiments, and the injection times could not be extended further for practical reasons.
Figure 2 NU6300 Is a Covalent Inhibitor of CDK2 (A and B) SPR sensorgrams for the interaction between immobilized CDK2 and NU6310 and NU6300. (A) The effects of time on the interaction were evaluated by comparing the dissociation rates for the compounds injected at 10 μM for different contact times (30, 60, 120, and 240 s). Sensorgrams are aligned with respect to the start of the dissociation. (B) The determination of rate constants was based on global analysis of a set of sensorgrams recorded for a concentration series (39, 156, 625, 2,500, and 10,000 nM) of the compounds. Theoretical curves of a fitted 1:1 Langmuir interaction model (black) are overlaid on the experimental traces. (C) Phosphorylation of GST-Rb by CDK2/cyclin A. The slower-migrating band is hyperphosphorylated GST-Rb (Phospho-Rb). Time points (in minutes) are shown above. (D) Time-dependent inhibition of CDK2/cyclin A. Activity was measured using the ADP-Glo assay format against a peptide of sequence HHASPRK. Error bars indicate SD of the measurements. See also Figure S1 and Table S1.
The interaction experiments were performed using SPR biosensor technology, with Biacore S51 and T100 instruments, CM5 biosensor chips, and standard reagents (GE Healthcare). Full details can be found in the Supplemental Experimental Procedures. […]
CDK2 was immobilized to activated carboxylated dextran surfaces by amine coupling to give surface densities of 6000-25000 RU. All interaction experiments were performed at 25 °C in 10 mM phosphate pH 7.4, 137 mM NaCl, 3 mM KCl, with addition of 0.05 % Tween 20, 5 % (v/v) DMSO, and at a flow rate of 90 or 30 µL/min. […]
Sensorgrams or extracted report points from reference surfaces and blank injections were subtracted from the raw data prior to data analysis, using Biacore T100 evaluation software 2.0. A 1:1 interaction model was fitted globally to sets of sensorgrams recorded with different contact times and at different inhibitor concentrations in multi-cycle experiments. Kinetic parameters were determined from sensorgrams with 30 s and 60 s contact time. Standard deviations were based on at least 4 measurement series.
CDK2/cyclin A was mixed with a freshly prepared solution of NU6300 to achieve DMSO and inhibitor concentrations of 2% and 2 mM respectively, concentrated by ultrafiltration to a CDK2/cyclin A final concentration of circa 5 mg ml-1, and then crystallized as described (Davies et al., 2002). Briefly, crystals were grown from a mother liquor containing 0.6–0.8 M KCl, 0.9–1.2 M (NH4)2SO4, and 100 mM HEPES (pH 7.0). Sitting drops were set up with a 1:1 ratio of protein to reservoir solution in a total initial volume of 0.5 or 1.0 µl.
Before data collection, crystals were briefly immersed in cryo-protectant (1 M sodium
(In SPR one partner is held on a chip, and binding of the other changes the refractive index at the surface.)

What is called Kd is the equilibrium constant for the complex coming apart. Usually koff stands for a measure of how fast the partners let go of each other. Higher therefore signals fast dissociation. As a reminder, the kon is the second-order rate constant of association. Read a high kon as faster complex formation. Turning to `C=CS(=O)(=O)c1ccc(Nc2nc(OCC3CCCCC3)c3nc[nH]c3n2)cc1` [NU6300, 6-(cyclohexylmethoxy)-N-(4-(vinylsulfonyl)phenyl)-9H-purin-2-amine], at CDK2-Cyclin A, the “CDK2 activity against Rb after incubation with inhibitor and dialysis” value is listed as “not recovered; also recorded: did not”. Further, in experiment [1], the Kd was found to be 1310 ± 180 nM, the koff is 0.0713 ± 0.0063 s⁻¹ and the kon came out at 54500 ± 7.2e+08 M⁻¹ s⁻¹.
For `CCS(=O)(=O)c1ccc(Nc2nc(OCC3CCCCC3)c3nc[nH]c3n2)cc1` [NU6310, 6-(cyclohexylmethoxy)-N-(4-(ethylsulfonyl)phenyl)-9H-purin-2-amine], the “CDK2 activity against Rb after incubation with inhibitor and dialysis” value at CDK2-Cyclin A was “could phosphorylate Rb; also recorded: recovered their activity”. In experiment [1], this compound registered a Kd of 716 ± 12 nM, a koff of 0.0809 ± 0.007 s⁻¹ and an association rate constant (kon) of 113000 ± 1e+09 M⁻¹ s⁻¹.
